From patent publication US9586961B2, “Homopiperazine derivatives as protein tyrosine kinase inhibitors and pharmaceutical use thereof” (LEO PHARMA A/S, priority 2010, dated 2017) come the findings set out here.

Common to all, as to assay type: biochemical
The target of assay [1] is T1, JAK1 (Homo sapiens, UniProt P23458).
T1 construct: JAK1 (aa 850-1154) and TYK2 (aa 871-1187) are expressed with an N-terminally fused GST-tag; GST (N); purchased Carna Biosciences, Inc; host or cells: baculovirus expression system
T1 sequence (P23458 850-1154): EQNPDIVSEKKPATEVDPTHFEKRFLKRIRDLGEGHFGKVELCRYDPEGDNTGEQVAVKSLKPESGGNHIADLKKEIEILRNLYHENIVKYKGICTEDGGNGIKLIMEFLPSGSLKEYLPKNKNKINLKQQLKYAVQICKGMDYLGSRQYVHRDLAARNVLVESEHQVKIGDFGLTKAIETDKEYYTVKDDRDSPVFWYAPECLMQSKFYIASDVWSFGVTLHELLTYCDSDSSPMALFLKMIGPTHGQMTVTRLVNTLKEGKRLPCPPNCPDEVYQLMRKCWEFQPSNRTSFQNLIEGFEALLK
Kind of assay: JAK1 kinase assay (HTRF, inhibition of phosphorylation of a synthetic peptide). The settings on record: catalytic domain aa 850-1154, GST-tag; 7 μM ATP (Km); read-out: JAK1 kinase inhibitory activity (EC50). The method, boiled down:
(§1)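 Baculovirus-expressed human catalytic domains (GST-JAK1, GST-TYK2, His-JAK2, His-JAK3) phosphorylated 1 μM TK substrate-biotin at ATP Km (JAK1 7 μM, JAK2 4 μM, JAK3 2 μM, TYK2 13 μM) in pH 7.0 Hepes for 20-30 min at RT, 0.75% DMSO. EDTA stop, then overnight streptavidin-XL665/cryptate-antibody detection and HTRF read.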
(TR-FRET usually uses a lanthanide donor and a delayed reading to cut background.)

Assay [2] has as its target T2, JAK2 (Homo sapiens, UniProt O60674).
T2 construct: All four purified enzymes contain only the catalytic domain; His (N); purchased Carna Biosciences, Inc; host or cells: baculovirus expression system
Kind of assay: JAK2 kinase assay (HTRF, inhibition of phosphorylation of a synthetic peptide). The settings on record: catalytic domain, His-tag; 4 μM ATP (Km); read-out: JAK2 kinase inhibitory activity (EC50). In outline:
as §1

Assay [3] deals with T3, JAK3 (Homo sapiens, UniProt P52333).
T3 construct: All four purified enzymes contain only the catalytic domain; His (N); purchased Carna Biosciences, Inc; host or cells: baculovirus expression system
T3 sequence (P52333 822-1111 limits assumed): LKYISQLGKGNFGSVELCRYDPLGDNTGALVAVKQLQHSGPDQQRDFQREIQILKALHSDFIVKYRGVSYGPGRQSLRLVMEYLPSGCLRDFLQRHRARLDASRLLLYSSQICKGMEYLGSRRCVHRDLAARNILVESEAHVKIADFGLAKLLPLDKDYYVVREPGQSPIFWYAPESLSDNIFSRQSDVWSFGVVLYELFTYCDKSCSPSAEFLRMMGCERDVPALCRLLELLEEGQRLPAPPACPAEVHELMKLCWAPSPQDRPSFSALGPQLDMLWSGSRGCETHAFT
Kind of assay: JAK3 kinase assay (HTRF, inhibition of phosphorylation of a synthetic peptide). The note with it: catalytic domain, His-tag; 2 μM ATP (Km); read-out: JAK3 kinase inhibitory activity (EC50). The method, boiled down:
as §1

In general, EC50 refers to the concentration giving half of the maximal effect.

T2 sequence (O60674 849-1124 limits assumed): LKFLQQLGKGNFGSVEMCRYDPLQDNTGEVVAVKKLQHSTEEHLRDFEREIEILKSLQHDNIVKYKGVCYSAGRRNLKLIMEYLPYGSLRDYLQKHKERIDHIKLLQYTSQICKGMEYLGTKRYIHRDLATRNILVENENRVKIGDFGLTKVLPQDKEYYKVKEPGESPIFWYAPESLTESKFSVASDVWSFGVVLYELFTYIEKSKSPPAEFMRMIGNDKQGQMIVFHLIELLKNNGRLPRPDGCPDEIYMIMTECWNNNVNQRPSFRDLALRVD

Consider `Cc1nccnc1C(=O)N1CCN(c2ncnc3[nH]ccc23)CC2(CC2)C1` [Example 168, (3-methylpyrazin-2-yl)-[5-(7H-pyrrolo[2,3-d]pyrimidin-4-yl)-5,8-diazaspiro[2.6]nonan-8-yl]methanone], for which the EC50 in assay [1], in assay [2] and in assay [3] was above 1000 nM each time.
Take `Cc1nc(C)c(CC(=O)N2CCCN(c3ncnc4[nH]ccc34)CC23CC3)s1` [Example 140, 2-(2,4-dimethylthiazol-5-yl)-1-[5-(7H-pyrrolo[2,3-d]pyrimidin-4-yl)-5,9-diazaspiro[2.6]nonan-9-yl]ethanone]: the EC50 in assay [1], in assay [2] and in assay [3] was above 1000 nM throughout.
Take `O=C(c1cccnc1)N1CCCN(c2ncnc3[nH]ccc23)CC12CC2` [Example 128, 3-pyridyl-[5-(7H-pyrrolo[2,3-d]pyrimidin-4-yl)-5,9-diazaspiro[2.6]nonan-9-yl]methanone]: the EC50 in assay [1] was 100 to 1000 nM; in assay [2], 100 to 1000 nM; in assay [3] it was above 1000 nM.
For `O=C(c1cn[nH]c1)N1CCN(c2ncnc3[nH]ccc23)CC2(CC2)C1` [Example 157, 1H-pyrazol-4-yl-[5-(7H-pyrrolo[2,3-d]pyrimidin-4-yl)-5,8-diazaspiro[2.6]nonan-8-yl]methanone], the EC50 in assay [1], in assay [2] and in assay [3] was 100 to 1000 nM throughout.
As to `O=C(c1ccncn1)N1CCN(c2ncnc3[nH]ccc23)CC2(CC2)C1` [Example 165, pyrimidin-4-yl-[5-(7H-pyrrolo[2,3-d]pyrimidin-4-yl)-5,8-diazaspiro[2.6]nonan-8-yl]methanone], the EC50 in assay [1] was above 1000 nM; in assay [2] it was 100 to 1000 nM; in assay [3], above 1000 nM.
In the case of `Cc1ncsc1CC(=O)N1CCN(c2ncnc3[nH]ccc23)CC2(CC2)C1` [Example 246, 2-(4-methylthiazol-5-yl)-1-[5-(7H-pyrrolo[2,3-d]pyrimidin-4-yl)-5,8-diazaspiro[2.6]nonan-8-yl]ethanone], the EC50 was 100 to 1000 nM in assay [1], 100 to 1000 nM in assay [2] and above 1000 nM in assay [3].
With `Cc1cc(C(=O)N2CCCN(c3ncnc4[nH]ccc34)CC23CC3)n[nH]1` [Example 149, (5-methyl-1H-pyrazol-3-yl)-[5-(7H-pyrrolo[2,3-d]pyrimidin-4-yl)-5,9-diazaspiro[2.6]nonan-9-yl]methanone], the EC50 was 100 to 1000 nM in assay [1], 100 to 1000 nM in assay [2] and above 1000 nM in assay [3].
`Cc1cc(CC(=O)N2CCCN(c3ncnc4[nH]ccc34)CC23CC3)on1` [Example 217, 2-(3-methylisoxazol-5-yl)-1-[5-(7H-pyrrolo[2,3-d]pyrimidin-4-yl)-5,9-diazaspiro[2.6]nonan-9-yl]ethanone]: the EC50 in assay [1] was 100 to 1000 nM; in assay [2] it was 100 to 1000 nM; in assay [3] it was above 1000 nM.
Take `Cc1oncc1C(=O)N1CCN(c2ncnc3[nH]ccc23)CC2(CC2)C1` [Example 108, (5-methylisoxazol-4-yl)-[5-(7H-pyrrolo[2,3-d]pyrimidin-4-yl)-5,8-diazaspiro[2.6]nonan-8-yl]methanone]: the EC50 in assay [1], in assay [2] and in assay [3] was 100 to 1000 nM throughout.
With `O=C(c1ccc(O)nc1)N1CCCN(c2ncnc3[nH]ccc23)CC12CC2` [Example 132, (6-hydroxy-3-pyridyl)-[5-(7H-pyrrolo[2,3-d]pyrimidin-4-yl)-5,9-diazaspiro[2.6]nonan-9-yl]methanone], the 50% effective concentration (EC50) in assay [1], in assay [2] and in assay [3] was 100 to 1000 nM each time.
As for `N#C[C@H]1CCCN1C(=O)N1CCN(c2ncnc3[nH]ccc23)CC2(CC2)C1` [Example 221, (2R)-1-[5-(7H-pyrrolo[2,3-d]pyrimidin-4-yl)-5,8-diazaspiro[2.6]nonane-8-carbonyl]pyrrolidine-2-carbonitrile], the EC50 is 100 to 1000 nM in assay [1], below 100 nM in assay [2] and 100 to 1000 nM in assay [3].
As for `Cc1sncc1C(=O)N1CCCN(c2ncnc3[nH]ccc23)CC12CC2` [Example 230, (5-methylisothiazol-4-yl)-[5-(7H-pyrrolo[2,3-d]pyrimidin-4-yl)-5,9-diazaspiro[2.6]nonan-9-yl]methanone], the EC50 is 100 to 1000 nM in assay [1], below 100 nM in assay [2] and 100 to 1000 nM in assay [3].
Take `O=C(c1ccno1)N1CCN(c2ncnc3[nH]ccc23)CC2(CC2)C1` [Example 177, isoxazol-5-yl-[5-(7H-pyrrolo[2,3-d]pyrimidin-4-yl)-5,8-diazaspiro[2.6]nonan-8-yl]methanone]: the EC50 in assay [1], in assay [2] and in assay [3] was 100 to 1000 nM in each case.
For the molecule `Cc1ccncc1C(=O)N1CCCN(c2ncnc3[nH]ccc23)CC12CC2` [Example 151, (4-methyl-3-pyridyl)-[5-(7H-pyrrolo[2,3-d]pyrimidin-4-yl)-5,9-diazaspiro[2.6]nonan-9-yl]methanone], the results for the EC50 in assay [1], in assay [2] and in assay [3] were 100 to 1000 nM, 100 to 1000 nM and above 1000 nM, respectively.
Turning to `N#CCc1ccc(CC(=O)N2CCN(c3ncnc4[nH]ccc34)CC3(CC3)C2)cc1` [Example 266, 2-[4-[2-oxo-2-[5-(7H-pyrrolo[2,3-d]pyrimidin-4-yl)-5,8-diazaspiro[2.6]nonan-8-yl]ethyl]phenyl]acetonitrile], the values for the EC50 in assay [1], in assay [2] and in assay [3] were below 100 nM, below 100 nM and 100 to 1000 nM, respectively.
With `CC(=O)Nc1ccc(CC(=O)N2CCN(c3ncnc4[nH]ccc34)CC3(CC3)C2)cc1` [Example 276], the EC50 is 100 to 1000 nM in assay [1], 100 to 1000 nM in assay [2] and above 1000 nM in assay [3].
For the molecule `Cc1ccccc1C(=O)N1CCN(c2ncnc3[nH]ccc23)CC2(CC2)C1` [Example 109, o-tolyl-[5-(7H-pyrrolo[2,3-d]pyrimidin-4-yl)-5,8-diazaspiro[2.6]nonan-8-yl]methanone], the values for the EC50 in assay [1], in assay [2] and in assay [3] were above 1000 nM, 100 to 1000 nM and above 1000 nM, respectively.
Consider `O=C(c1ccccc1F)N1CCN(c2ncnc3[nH]ccc23)CC2(CC2)C1` [Example 111, (2-fluorophenyl)-[5-(7H-pyrrolo[2,3-d]pyrimidin-4-yl)-5,8-diazaspiro[2.6]nonan-8-yl]methanone], for which the EC50 in assay [1] was 100 to 1000 nM; in assay [2] it was below 100 nM; in assay [3] it was above 1000 nM.
As for `O=C(c1ccnc(O)c1)N1CCN(c2ncnc3[nH]ccc23)CC2(CC2)C1` [Example 190, (2-hydroxy-4-pyridyl)-[5-(7H-pyrrolo[2,3-d]pyrimidin-4-yl)-5,8-diazaspiro[2.6]nonan-8-yl]methanone], the values for the concentration for a half-maximal effect (EC50) in assay [1], in assay [2] and in assay [3] were 100 to 1000 nM, 100 to 1000 nM and above 1000 nM, respectively.
Turning to `O=C(c1cccc(O)n1)N1CCCN(c2ncnc3[nH]ccc23)CC12CC2` [Example 164, (6-hydroxy-2-pyridyl)-[5-(7H-pyrrolo[2,3-d]pyrimidin-4-yl)-5,9-diazaspiro[2.6]nonan-9-yl]methanone], the concentration giving a half-maximal response (EC50) in assay [1] was 100 to 1000 nM; in assay [2] it was 100 to 1000 nM; in assay [3], above 1000 nM.
For `Cc1ncoc1C(=O)N1CCCN(c2ncnc3[nH]ccc23)CC12CC2` [Example 192, (4-methyloxazol-5-yl)-[5-(7H-pyrrolo[2,3-d]pyrimidin-4-yl)-5,9-diazaspiro[2.6]nonan-9-yl]methanone], the EC50 in assay [1], in assay [2] and in assay [3] was 100 to 1000 nM each time.
With `Cc1cncc(C(=O)N2CCCN(c3ncnc4[nH]ccc34)CC23CC3)n1` [Example 198, (6-methylpyrazin-2-yl)-[5-(7H-pyrrolo[2,3-d]pyrimidin-4-yl)-5,9-diazaspiro[2.6]nonan-9-yl]methanone], the EC50 is 100 to 1000 nM in assay [1], 100 to 1000 nM in assay [2] and above 1000 nM in assay [3].
In the case of `N#Cc1cc(CC(=O)N2CCN(c3ncnc4[nH]ccc34)CC3(CC3)C2)ccc1F` [Example 273, 2-fluoro-5-[2-oxo-2-[5-(7H-pyrrolo[2,3-d]pyrimidin-4-yl)-5,8-diazaspiro[2.6]nonan-8-yl]ethyl]benzonitrile], the results for the EC50 in assay [1], in assay [2] and in assay [3] were 100 to 1000 nM, below 100 nM and 100 to 1000 nM, respectively.
As for `CC(C(=O)N1CCN(c2ncnc3[nH]ccc23)CC2(CC2)C1)c1ccccc1` (stereo not drawn) [Example 275, 2-phenyl-1-[5-(7H-pyrrolo[2,3-d]pyrimidin-4-yl)-5,8-diazaspiro[2.6]nonan-8-yl]propan-1-one], the EC50 in assay [1] is 100 to 1000 nM; in assay [2] it was below 100 nM; in assay [3], 100 to 1000 nM.
Take `O=C(Cc1cscn1)N1CCN(c2ncnc3[nH]ccc23)CC2(CC2)C1` [Example 88, 1-[5-(7H-pyrrolo[2,3-d]pyrimidin-4-yl)-5,8-diazaspiro[2.6]nonan-8-yl]-2-thiazol-4-yl-ethanone]: the EC50 in assay [1], in assay [2] and in assay [3] was 100 to 1000 nM each time.
With `Cn1cncc1C(=O)N1CCN(c2ncnc3[nH]ccc23)CC2(CC2)C1` [Example 144, (3-methylimidazol-4-yl)-[5-(7H-pyrrolo[2,3-d]pyrimidin-4-yl)-5,8-diazaspiro[2.6]nonan-8-yl]methanone], the EC50 in assay [1] is 100 to 1000 nM; in assay [2], 100 to 1000 nM; in assay [3], above 1000 nM.
